Results taken from ChEMBL document CHEMBL5104136, “Discovery of benzodioxane analogues as lead candidates of AIMP2-DX2 inhibitors” (Bioorg Med Chem Lett, 2022).

Tests used:
[1] = biological target: T1, Aminoacyl tRNA synthase complex-interacting multifunctional protein 2 (Homo sapiens, UniProt Q13155); experiment: Inhibition of AIMP2-DX2 in human A549 cells by luciferase assay; type: cell-based
[2] = biological target: T1, Aminoacyl tRNA synthase complex-interacting multifunctional protein 2; experiment: Inhibition of AIMP2-DX2 in human A549 cells by nanoluciferase based assay; type: cell-based
[3] = tested on: A549; experiment: Cytotoxicity against human A549 cells expressing high levels of AIMP2-DX2 assessed as reduction in cell viability incubated for 96 hrs; type: functional, cell-based; conditions: A549, 96 h
[4] = tested on: NCI-H460; experiment: Cytotoxicity against human NCI-H460 cells expressing median levels of AIMP2-DX2 assessed as reduction in cell viability incubated for 96 hrs; type: functional, cell-based; conditions: NCI-H460, 96 h
[5] = Cytotoxicity against human WI-26 cells expressing low levels of AIMP2-DX2 assessed as reduction in cell viability incubated for 96 hrs; type: toxicity, cell-based; conditions: wi-26, 96 h
[6] = Metabolic stability in human assessed as half life; type: ADME
[7] = Metabolic stability in mouse assessed as half life; type: ADME
[8] = Plasma stability in human assessed as compound remaining measured after 2 hrs; type: ADME, cell-free; conditions: read-out: Stability
[9] = Plasma stability in mouse assessed as compound remaining measured after 2 hrs; type: ADME, cell-free; conditions: read-out: Stability
[10] = biological target: Cytochrome P450 3A4 (Homo sapiens, UniProt P08684); experiment: Inhibition of CYP3A4 (unknown origin); type: ADME
[11] = biological target: Cytochrome P450 2D6 (Homo sapiens, UniProt P10635); experiment: Inhibition of CYP2D6 (unknown origin); type: ADME
[12] = biological target: T2, Cytochrome P450 1A2 (Homo sapiens, UniProt P05177); experiment: Inhibition of CYP1A2 (unknown origin); type: ADME
T2 sequence (P05177 whole entry): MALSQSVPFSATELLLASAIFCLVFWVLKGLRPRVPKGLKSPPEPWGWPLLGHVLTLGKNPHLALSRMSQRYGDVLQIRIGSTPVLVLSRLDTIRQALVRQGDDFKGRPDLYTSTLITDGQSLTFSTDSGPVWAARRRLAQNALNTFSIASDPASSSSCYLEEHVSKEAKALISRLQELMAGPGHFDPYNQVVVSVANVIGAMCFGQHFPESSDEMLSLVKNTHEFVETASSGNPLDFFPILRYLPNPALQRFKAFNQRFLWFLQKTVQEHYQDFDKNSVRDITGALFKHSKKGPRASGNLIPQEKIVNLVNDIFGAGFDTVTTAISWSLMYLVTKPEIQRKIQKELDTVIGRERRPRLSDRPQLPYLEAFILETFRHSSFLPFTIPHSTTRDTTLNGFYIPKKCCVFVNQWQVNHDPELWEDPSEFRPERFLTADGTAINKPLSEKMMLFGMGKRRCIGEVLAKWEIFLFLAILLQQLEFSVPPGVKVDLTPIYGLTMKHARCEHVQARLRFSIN

[13] = biological target: Cytochrome P450 2C9 (Homo sapiens, UniProt P11712); experiment: Inhibition of CYP2C9 (unknown origin); type: ADME
[14] = biological target: Cytochrome P450 2C19 (Homo sapiens, UniProt P33261); experiment: Inhibition of CYP2C19 (unknown origin); type: ADME
[15] = tested on: A549; experiment: Inhibition of cell proliferation in human A549 cells; type: functional, cell-based

Cytochrome P450 2C19, sequence (P33261 whole entry): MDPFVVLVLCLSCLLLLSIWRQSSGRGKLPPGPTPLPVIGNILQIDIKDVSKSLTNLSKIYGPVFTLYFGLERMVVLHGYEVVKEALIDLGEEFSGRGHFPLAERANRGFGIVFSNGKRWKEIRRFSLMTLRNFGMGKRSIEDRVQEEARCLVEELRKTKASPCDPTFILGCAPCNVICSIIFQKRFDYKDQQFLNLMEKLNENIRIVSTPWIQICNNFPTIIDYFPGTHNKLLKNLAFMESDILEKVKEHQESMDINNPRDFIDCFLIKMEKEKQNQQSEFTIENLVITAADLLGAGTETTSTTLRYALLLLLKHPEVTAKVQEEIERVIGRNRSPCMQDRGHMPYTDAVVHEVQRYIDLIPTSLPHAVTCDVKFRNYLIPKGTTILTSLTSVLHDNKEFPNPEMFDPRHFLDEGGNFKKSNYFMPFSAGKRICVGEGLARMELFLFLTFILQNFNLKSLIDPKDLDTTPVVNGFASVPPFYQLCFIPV
Cytochrome P450 3A4, sequence (P08684 whole entry): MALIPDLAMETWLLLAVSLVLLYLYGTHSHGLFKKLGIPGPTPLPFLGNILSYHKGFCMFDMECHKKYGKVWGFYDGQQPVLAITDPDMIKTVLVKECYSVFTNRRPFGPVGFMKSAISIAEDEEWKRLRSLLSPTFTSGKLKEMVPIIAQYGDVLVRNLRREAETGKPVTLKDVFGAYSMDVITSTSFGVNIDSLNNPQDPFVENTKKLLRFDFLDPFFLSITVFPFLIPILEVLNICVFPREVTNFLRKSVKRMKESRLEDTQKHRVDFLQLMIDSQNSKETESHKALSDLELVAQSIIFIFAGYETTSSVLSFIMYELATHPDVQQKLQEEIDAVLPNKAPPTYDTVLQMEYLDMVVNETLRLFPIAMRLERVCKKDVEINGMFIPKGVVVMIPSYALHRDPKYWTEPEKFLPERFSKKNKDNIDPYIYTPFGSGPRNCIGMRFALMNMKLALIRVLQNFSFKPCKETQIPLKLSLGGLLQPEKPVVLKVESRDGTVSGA
T1 sequence (Q13155 whole entry, looked up, one chain of several): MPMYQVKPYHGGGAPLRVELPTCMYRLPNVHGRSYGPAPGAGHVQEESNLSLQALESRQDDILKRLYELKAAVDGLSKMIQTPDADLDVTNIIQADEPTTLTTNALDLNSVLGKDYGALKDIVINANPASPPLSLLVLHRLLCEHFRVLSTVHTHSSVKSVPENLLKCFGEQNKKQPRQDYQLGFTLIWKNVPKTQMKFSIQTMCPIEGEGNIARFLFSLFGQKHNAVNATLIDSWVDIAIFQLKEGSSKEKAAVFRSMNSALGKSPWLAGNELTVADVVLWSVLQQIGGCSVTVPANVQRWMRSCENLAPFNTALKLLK
Cytochrome P450 2D6, sequence (P10635 whole entry): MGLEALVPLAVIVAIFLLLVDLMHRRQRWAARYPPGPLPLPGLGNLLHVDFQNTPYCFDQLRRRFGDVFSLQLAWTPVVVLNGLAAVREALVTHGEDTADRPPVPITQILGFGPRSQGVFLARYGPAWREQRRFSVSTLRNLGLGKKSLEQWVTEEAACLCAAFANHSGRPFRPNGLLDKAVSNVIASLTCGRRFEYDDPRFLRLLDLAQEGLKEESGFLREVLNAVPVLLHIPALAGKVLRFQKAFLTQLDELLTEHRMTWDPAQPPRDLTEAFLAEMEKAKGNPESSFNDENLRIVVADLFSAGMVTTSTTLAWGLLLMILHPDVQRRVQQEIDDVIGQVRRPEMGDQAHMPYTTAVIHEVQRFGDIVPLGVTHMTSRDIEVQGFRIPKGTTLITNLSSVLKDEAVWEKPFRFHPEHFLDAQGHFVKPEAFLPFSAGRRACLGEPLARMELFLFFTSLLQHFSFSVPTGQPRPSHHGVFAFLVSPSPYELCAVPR
Cytochrome P450 2C9, sequence (P11712 whole entry): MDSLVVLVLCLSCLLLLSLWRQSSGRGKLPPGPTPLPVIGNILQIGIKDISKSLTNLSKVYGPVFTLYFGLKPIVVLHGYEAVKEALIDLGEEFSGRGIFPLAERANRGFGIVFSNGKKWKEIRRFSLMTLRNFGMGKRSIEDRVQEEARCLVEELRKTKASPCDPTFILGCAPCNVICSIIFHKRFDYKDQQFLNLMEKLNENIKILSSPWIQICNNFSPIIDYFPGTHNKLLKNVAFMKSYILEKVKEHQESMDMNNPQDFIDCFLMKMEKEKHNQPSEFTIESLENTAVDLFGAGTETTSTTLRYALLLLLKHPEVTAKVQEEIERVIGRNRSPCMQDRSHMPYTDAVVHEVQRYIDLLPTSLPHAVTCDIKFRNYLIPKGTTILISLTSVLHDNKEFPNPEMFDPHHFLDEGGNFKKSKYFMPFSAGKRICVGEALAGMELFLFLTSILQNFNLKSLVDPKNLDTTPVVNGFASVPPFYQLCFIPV

Cc1ccc2c(CC(=O)NCC3COc4ccccc4O3)coc2c1 (stereo unspecified)
IC50 [1]: 5.68 µM

O=C(O)c1cccc(-c2ccc(/C=N/NC(=O)C3COc4ccccc4O3)o2)c1 (stereo unspecified)
IC50 [1]: 7.38 µM | IC50 [2]: 10.1 µM | EC50 [3]: 12 µM | EC50 [4]: 2.98 µM | Activity [5]: Non-Toxic | half-life [6]: 49.1 min | half-life [7]: 30.9 min | remaining at 2 h [8]: 69.8% | remaining at 2 h [9]: 47.3% | IC50 [10]: > 50 µM | IC50 [11]: > 50 µM | IC50 [12]: > 50 µM | IC50 [13]: 49.5 µM | IC50 [14]: > 50 µM

Cc1cc2occ(CC(=O)NCC3COc4ccccc4O3)c2cc1C (stereo unspecified)
EC50 [3]: 1.23 µM | EC50 [4]: 0.37 µM | Activity [5]: Non-Toxic

O=C(Cc1ccc(-c2ccccc2)cc1)NCC1COc2ccccc2O1 (stereo unspecified)
EC50 [3]: 0.69 µM | EC50 [4]: 0.15 µM | Activity [5]: Non-Toxic | half-life [6]: < 2.5 min | half-life [7]: 1.6 min | remaining at 2 h [8]: 98.7% | remaining at 2 h [9]: 108% | IC50 [10]: > 50 µM | IC50 [11]: 12.3 µM | IC50 [12]: 1.64 µM | IC50 [13]: 0.559 µM | IC50 [14]: 0.228 µM

Cc1ccc(S(=O)(=O)N[C@@H](CC(C)C)C(=O)N2CCCOCCOCCOCC2)cc1
IC50 [15]: 40.1 µM

CCc1ccc(CC(=O)NCC2COc3ccccc3O2)cc1 (stereo unspecified)
EC50 [3]: 0.688 µM | EC50 [4]: 0.204 µM | Activity [5]: Non-Toxic | half-life [6]: 2.7 min | half-life [7]: 0.7 min | remaining at 2 h [8]: 97% | remaining at 2 h [9]: 94.2% | IC50 [10]: 36.2 µM | IC50 [11]: 29.2 µM | IC50 [12]: 0.417 µM | IC50 [13]: 3.46 µM | IC50 [14]: 0.461 µM

Cc1cc(O)ccc1CC(=O)NCC1COc2ccccc2O1 (stereo unspecified)
EC50 [3]: 1.1 µM | EC50 [4]: 0.458 µM | Activity [5]: Non-Toxic
